According to ChEMBL document CHEMBL3044897, “Pharmacophore-based predictive model generation for potent antimalarials targeting haem detoxification pathway” (Med Chem Res, 2007):

What was measured:
[1] = tested on: Plasmodium falciparum; assay: Antimalarial activity against chloroquine-resistant Plasmodium falciparum K1 assessed as incorporation of [3H]hypoxanthine after 48 hr microdilution method; format: functional, organism-based
[2] = tested on: Plasmodium falciparum; assay: Antimalarial activity against chloroquine-sensitive Plasmodium falciparum 3D7 assessed as incorporation of [3H]hypoxanthine after 48 hr microdilution method; format: functional, organism-based
[3] = tested on: Heme; assay: Inhibition of heme polymerization in Plasmodium falciparum after 15 min by liquid scintillation counting analysis in presence of [14C]-hemin chloride

Row | SMILES | IC50 [1] | IC50 [2] | IC50 [3]
1 | CCN(CC)Cc1cc(Nc2ccnc3cc(Cl)ccc23)ccc1O | 18 nM | 7.8 nM | 15000 nM
2 | CCN(CC)CCCC(C)Nc1ccncc1 (stereo unspecified) | 15000 nM | 12000 nM | 92000 nM
3 | Oc1ccc(Nc2ccnc3cc(Cl)ccc23)cc1 |  | 1400 nM | 19000 nM
4 | CCN(CC)Cc1cc(Nc2ccncc2)ccc1O |  | 680 nM | 72000 nM
5 | O[C@@H](c1cc(C(F)(F)F)nc2c(C(F)(F)F)cccc12)[C@H]1CCCCN1 (relative stereo) [(S,R)-MEFLOQUINE] | 9.4 nM | 23 nM | 47000 nM
6 | Oc1ccc(Nc2ccnc3cc(Cl)ccc23)cc1CN1CCCC1 [AMOPYROQUINE] | 12 nM | 5.3 nM | 30000 nM
7 | NCc1cc(Nc2ccnc3cc(Cl)ccc23)ccc1O [BIDESETHYL AMODIAQUINE] | 170 nM | 21 nM | 73000 nM
8 | CC(CCCN)Nc1ccnc2cc(Cl)ccc12 (stereo unspecified) [BIDESETHYL CHLOROQUINE] |  | 55 nM | 58000 nM
9 | CCN(CC)CCCC(C)Nc1ccnc2cc(Cl)ccc12 (stereo unspecified) [CHLOROQUINE] |  |  | 24000 nM
10 | C=C[C@H]1CN2CC[C@H]1C[C@H]2[C@H](O)c1ccnc2ccccc12 [CINCHONIDINE] | 91 nM | 40 nM | 27000 nM
11 | C=C[C@H]1CN2CC[C@H]1C[C@@H]2[C@@H](O)c1ccnc2ccccc12 [CINCHONINE] | 56 nM | 21 nM | 23000 nM
12 | CC(CCCN1CCCC1)Nc1ccnc2cc(Cl)ccc12 (stereo unspecified) [Chloroquine-pyrolidinyl] |  | 19 nM | 44000 nM
13 | CCN(CC)Cc1cc(Nc2ccnc3cc(Cl)ccc23)cc(-c2ccc(Cl)cc2)c1 [DEHYDROXY TEBAQUINE] |  | 42 nM | 51000 nM
14 | CCNCc1cc(Nc2ccnc3cc(Cl)ccc23)ccc1O [DESETHYL AMODIAQUINE] | 39 nM | 6.9 nM | 43000 nM
15 | CCNCCCC(C)Nc1ccnc2cc(Cl)ccc12 (stereo unspecified) [DESETHYLCHLOROQUINE] | 720 nM | 19 nM | 45000 nM
16 | CCCCN(CCCC)CCC(O)c1cc2c(Cl)cc(Cl)cc2c2cc(C(F)(F)F)ccc12 (stereo unspecified) [HALOFANTRINE] | 2.8 nM | 5.8 nM | 180000 nM
17 | CC(C)(C)NCc1cc(Nc2ccnc3cc(Cl)ccc23)ccc1O [N-TERT-BUTYL-AMODIAQUINE] | 9.1 nM | 5.5 nM | 32000 nM
18 | COc1ccc2nc3cc(Cl)ccc3c(Nc3cc(CN4CCCC4)c(O)c(CN4CCCC4)c3)c2n1 [PYRONARIDINE] | 9.1 nM | 5.7 nM | 64000 nM
19 | CCN(CC)CCCC(C)Nc1c2ccc(Cl)cc2nc2ccc(OC)cc12 (stereo unspecified) [QUINACRINE] |  | 13 nM | 41000 nM
20 | C=C[C@H]1CN2CC[C@H]1C[C@@H]2[C@@H](O)c1ccnc2ccc(OC)cc12 [QUINIDINE] |  | 21 nM | 24000 nM
21 | C=C[C@H]1CN2CC[C@H]1C[C@H]2[C@H](O)c1ccnc2ccc(OC)cc12 [QUININE] |  | 34 nM | 65000 nM
22 | CCN(CC)Cc1cc(Nc2ccnc3cc(Cl)ccc23)cc(-c2ccc(Cl)cc2)c1O [TEBAQUINE] | 13 nM | 9.5 nM | 53000 nM
